Like-named read-outs stand apart in the source and are kept apart here. Where a SMILES comes first, the peptide text is derived from it. The star is where a group is joined. MeOSuc = COC(=O)CCC(=O)*; CH2Cl = ClC*
Legend:
[1] = biological target: Elastase (Sus scrofa, UniProt P00772); assay: elastase inhibitory activity, spectrophotometric; assay type: biochemical
[2] = system: SK-LU-1; assay: MTT cytotoxicity assay, SK-LU-1; assay type: cell-based; details: Homo sapiens, SK-LU-1, read-out: SK-LU-1 IC50
[3] = biological target: Collagenase; assay: collagenase enzyme inhibition, spectrophotometric; assay type: biochemical; details: read-out: Collagenase IC50
[4] = system: 95D; assay: MTT cytotoxicity assay, 95D; assay type: cell-based; details: Homo sapiens, read-out: 95D IC50
[5] = system: SPC-A-1, SK-LU-1, and 95D human lung cancer cell lines; assay: MTT cytotoxicity assay, three lung cancer cell lines together; assay type: cell-based; details: read-out: IC50 growth inhibition in the three lung cancer cells

Elastase, sequence (P00772 27-266): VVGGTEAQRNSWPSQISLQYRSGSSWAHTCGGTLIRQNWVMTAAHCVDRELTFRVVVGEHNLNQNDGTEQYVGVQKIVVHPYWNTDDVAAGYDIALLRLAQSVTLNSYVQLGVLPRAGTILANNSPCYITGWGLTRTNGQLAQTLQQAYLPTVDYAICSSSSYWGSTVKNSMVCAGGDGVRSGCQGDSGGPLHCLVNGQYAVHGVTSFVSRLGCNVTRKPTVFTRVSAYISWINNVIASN

Row | Compound | IC50 [1] [µM] | IC50 [2] [µM] | IC50 [3] [µM] | IC50 [4] [µM] | IC50 [5] [µM] | IC50 ([1]; read-out: Elastase IC50) [µM]
1 | OC[C@H](Cc1cccc(O)c1)[C@H](CO)Cc1cccc(O)c1 [Enterodiol] | 11.1 ± 1.87 | 67.3 | 104 ± 11.3 | 64.1 | – | –
2 | COc1ccc(/C=C/C(=O)c2c(O)cc(OC)cc2OC)cc1 [Flavokawain A] | 27.3 ± 4.67 | 23.3 | 66.3 ± 7.95 | 22.4 | 12 to 30 | –
3 | COc1cc(O)c(C(=O)/C=C/c2ccccc2)c(OC)c1 [Flavokawain B] | 20.1 ± 2.36 | 29.3 | 71.1 ± 16 | 32.6 | 12 to 30 | –
4 | O=C1OC[C@H](Cc2cccc(O)c2)[C@H]1Cc1cccc(O)c1 [Enterolactone] | 22.5 ± 4.08 | 45.8 | 9.66 ± 1.52 | 41.1 | – | –
5 | CC(C)C[C@H](NP(=O)(O)O[C@@H]1O[C@@H](C)[C@H](O)[C@@H](O)[C@H]1O)C(=O)N[C@@H](Cc1c[nH]c2ccccc12)C(=O)O [Phosphoramidon, reference compound] | – | – | 101 ± 14.8 | – | – | –
6 | COc1cc(O)c(C(=O)/C=C/c2ccc(O)cc2)c(OC)c1 [Flavokawain C] | 17.6 ± 1.68 | 22.7 | 62.1 ± 9.43 | 21 | 12 to 30 | –
7 | COc1cccc2c1C(=O)c1c(O)c3c(c(O)c1C2=O)C[C@@](O)(C(=O)CO)C[C@@H]3O[C@H]1C[C@H](N)[C@H](O)[C@H](C)O1 [Doxorubicin, reference compound] | – | 25 | – | 25 | 25 to 30 | –
8 | COC(=O)CCC(=O)N[C@@H](C)C(=O)N[C@@H](C)C(=O)N1CCC[C@H]1C(=O)N[C@H](C(=O)CCl)C(C)C [N-(Methoxysuccinyl)-Ala-Ala-Pro-Val-chloromethyl ketone, reference compound] (MeOSuc-AAPV-CH2Cl) | – | – | – | – | – | 30.6 ± 3.25

Source: publication PMC8898348 (Journal of the Indian Chemical Society, 2022)
